Laboratory results taken from patent US11596636B2, “Tailored combinatorial epigenetic therapies for P53 gain-of-function tumors” (The Trustees of the University of Pennsylvania, priority 2014, dated 2023).
Values belong to the compound of their own block, whether it stands above or below them.

Key:
[1] = molecular target: T1, menin-MLL1 interaction in MDAH041 cells (p53 null) (Homo sapiens, UniProt O00255); experiment: Endogenous co-IP of Menin and MLL1 in LFS MDAH041 cells; format: cell-based; conditions: different concentrations, vs DMSO
T1 construct: endogenous in cells; host or cells: LFS MDAH087 (p53 R248W) and MDAH041 (p53 null) cells
T1 sequence (O00255 1-610): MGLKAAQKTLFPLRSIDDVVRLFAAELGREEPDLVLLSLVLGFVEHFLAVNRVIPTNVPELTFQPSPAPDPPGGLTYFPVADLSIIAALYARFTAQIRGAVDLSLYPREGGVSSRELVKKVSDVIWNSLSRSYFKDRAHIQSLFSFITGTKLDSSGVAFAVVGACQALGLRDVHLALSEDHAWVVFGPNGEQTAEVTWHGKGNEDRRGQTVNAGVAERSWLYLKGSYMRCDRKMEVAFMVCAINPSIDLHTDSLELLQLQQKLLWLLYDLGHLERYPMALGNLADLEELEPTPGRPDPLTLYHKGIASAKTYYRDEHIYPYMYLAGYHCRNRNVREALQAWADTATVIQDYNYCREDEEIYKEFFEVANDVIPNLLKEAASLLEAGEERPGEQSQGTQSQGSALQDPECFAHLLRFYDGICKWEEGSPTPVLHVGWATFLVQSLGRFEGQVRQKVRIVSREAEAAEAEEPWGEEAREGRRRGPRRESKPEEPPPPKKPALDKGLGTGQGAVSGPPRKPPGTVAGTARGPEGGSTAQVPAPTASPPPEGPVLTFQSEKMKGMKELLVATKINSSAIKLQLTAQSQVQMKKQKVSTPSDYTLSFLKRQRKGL

[2] = system: AT-1 cells (MLL-AF9 leukemia cell line); experiment: Growth analysis of AT-1 cells; format: cell-based, mouse; conditions: 10 μM ISC-30 vs DMSO
Procedure: FIG. 15, comprising FIG. 15A through FIG. 15G, depicts the results of example experiments. (FIG. 15A) Chemical structure of ISC-30 compound [N,N′-bis(4-aminophenyl)-N,N′-dimethylethylenediamine]. (CID: 193110, NCI: 129674, Chemical formula: C16H22N4 Molecular weight: 270.37) (FIG. 15B) His-SUMO-MeninΔ460-519 (Menin) was titrated into wells containing fluorescence polarization buffer and FITC-MLL peptide (1.5 nM) to allow fluorescence polarization monitoring and calculation of the binding affinity. (FIG. 15C) Wild-type (WT) or Mutant (Mut) competitor MLL peptides were titrated into wells containing fluorescence polarization butter, His-SUMO-MeninΔ460-519 (5 nM), and FITC-MLL peptide (1.5 nM) and the inhibition of fluorescence polarization was monitored and utilized to normalize the ISC30 inhibition. […] (FIG. 15D) Peptide displacement assay measuring ISC-30 inhibition of menin-MLL1 interaction by the decrease in fluorescence polarization (FP) signal of a FITC labeled MLL1 peptide upon ISC-30 induced dissociation from menin. […]
200,000 cells were seeded on 950 mm^2 surface area (one well of 6-well plate) on Day 0. Cell number was measured every two days with Countess Automated Cell Counter (Life Technologies) following its standard procedure, and then 200,000 cells were plated back for the next counting. […]

[3] = system: Hoxa cluster genes in AT-1 cells (MLL-AF9 leukemia cell line); experiment: HoxA5 and HoxA9 mRNA levels in AT-1 cells; format: cell-based, mouse; conditions: after 2 days of treatment, vs DMSO
Procedure: FIG. 15, comprising FIG. 15A through FIG. 15G, depicts the results of example experiments. (FIG. 15A) Chemical structure of ISC-30 compound [N,N′-bis(4-aminophenyl)-N,N′-dimethylethylenediamine]. (CID: 193110, NCI: 129674, Chemical formula: C16H22N4 Molecular weight: 270.37) (FIG. 15B) His-SUMO-MeninΔ460-519 (Menin) was titrated into wells containing fluorescence polarization buffer and FITC-MLL peptide (1.5 nM) to allow fluorescence polarization monitoring and calculation of the binding affinity. (FIG. 15C) Wild-type (WT) or Mutant (Mut) competitor MLL peptides were titrated into wells containing fluorescence polarization butter, His-SUMO-MeninΔ460-519 (5 nM), and FITC-MLL peptide (1.5 nM) and the inhibition of fluorescence polarization was monitored and utilized to normalize the ISC30 inhibition. All measurements were blanked by subtracting the background signal taken from wells containing only buffer. mP=millipolarization. (FIG. 15D) Peptide displacement assay measuring ISC-30 inhibition of menin-MLL1 interaction by the decrease in fluorescence polarization (FP) signal of a FITC labeled MLL1 peptide upon ISC-30 induced dissociation from menin. (FIG. 15E) HoxA5 and HoxA9 mRNA levels after 2 days of ISC-30 or DMSO (vehicle control) treatment in AT-1 cells (mouse MLL-AF9 leukemia cell line). (FIG. 15F) Growth analysis of AT-1 cells treated with DMSO or 10 μM ISC-30. […]

MDAH041 cells (p53 null) = experiment: Growth curve analysis of LFS MDAH041 cells; format: cell-based, human; conditions: OICR-9429 2 μM or 4 μM, vs DMSO
Procedure: (§1) (FIG. 10A) Endogenous co-IP of Menin and MLL1 in LFS MDAH087 cells upon treatment of DMSO or different concentrations of ISC-30.
(§2) Li-Fraumeni Syndrome cell lines MDAH087 and MDAH041 were obtained from Dr. Michael A. Tainsky (Wayne State University, Detroit, Mich.) as a kind gift, and were cultured at 3% oxygen, in standard tissue culture medium.
(§3) 200,000 cells were seeded on 950 mm^2 surface area (one well of 6-well plate) on Day 0. Cell number was measured every two days with Countess Automated Cell Counter (Life Technologies) following its standard procedure, and then 200,000 cells were plated back for the next counting. For shRNA mediated knockdown experiments, cells were seeded seven days after the initial infection of shRNA-containing lentivirus, during which puromycin selection was completed and cells were already put back to normal growth medium. For small compound inhibitor treatment experiments, inhibitors were added on Day 0 as cells were seeded and refreshed every other day as cells were counted and plated back.

[4] = molecular target: T2, menin-MLL1 interaction in MDAH087 cells (p53 GOF) (Homo sapiens, UniProt O00255); experiment: Endogenous co-IP of Menin and MLL1 in LFS MDAH087 cells; format: cell-based; conditions: different concentrations, vs DMSO
T2 construct: endogenous in cells; host or cells: LFS MDAH087 (p53 R248W) and MDAH041 (p53 null) cells
T2 sequence (O00255 1-610): T1 sequence (O00255 1-610)
Procedure: (FIG. 10A) Endogenous co-IP of Menin and MLL1 in LFS MDAH087 cells upon treatment of DMSO or different concentrations of ISC-30. (FIG. 10B) & (FIG. 10C) Growth curve analysis of LFS (FIG. 10B) MDAH087 and (FIG. 10C) MDAH041 cells treated with DMSO, […] ISC-30 Menin inhibitor. (FIG. 10D) & (FIG. 10E) Growth curve analysis of LFS (FIG. 10D) MDAH087 and (FIG. 10E) MDAH041 cells treated with DMSO, […], or 20 μM MI-2-2 Menin inhibitor. (FIG. 10F) and (FIG. 10G) Growth curve analysis of LFS (FIG. 10F) MDAH087 and (FIG. 10G) MDAH041 cells treated with DMSO, 2 μM, or 4 μM OICR-9429 WDR5 inhibitor.
Flag tagged ETS2 protein was expressed in HEK293T cells, which was then subjected to immunoprecipitation with Flag antibody conjugated Dynabeads. Then after washes, HA tagged WT or GOF p53 (generated by in vitro translation method (Thermo #88881)) was added to co-immunoprecipitate with Flag-ETS2. Endogenous co-IP experiments were performed in buffer containing: 20 mM Tris, pH 8.0, 137 mM NaCl, 1 mM MgCl2, 1 mM CaCl2, 1% NP-40, 10% glycerol, plus complete protease and phosphatase inhibitor (without EDTA), plus 12.5 U/ml benzonase (Novagen, 70746).

[5] = system: MDAH087 cells (p53 R248W, GOF p53); experiment: Growth curve analysis of LFS MDAH087 cells; format: cell-based, human; conditions: OICR-9429 2 μM or 4 μM, vs DMSO
Procedure: as §1, §2, §3

[6] = molecular target: T3, menin-MLL1 interaction (His-SUMO-Menin-Δ460-519, FITC-MLL peptide) (Homo sapiens, UniProt O00255, DEL460-519); experiment: Fluorescence polarization competition assay, FITC-MLL peptide displacement from menin; format: binding; conditions: FITC-MLL peptide 1.5 nM, His-SUMO-Menin-Δ460-519 5 nM
T3 construct: made in house; host or cells: Rosetta (DE3-pLysS) E. coli
T3 sequence (O00255 with tags, fused parts or gaps DEL460-519): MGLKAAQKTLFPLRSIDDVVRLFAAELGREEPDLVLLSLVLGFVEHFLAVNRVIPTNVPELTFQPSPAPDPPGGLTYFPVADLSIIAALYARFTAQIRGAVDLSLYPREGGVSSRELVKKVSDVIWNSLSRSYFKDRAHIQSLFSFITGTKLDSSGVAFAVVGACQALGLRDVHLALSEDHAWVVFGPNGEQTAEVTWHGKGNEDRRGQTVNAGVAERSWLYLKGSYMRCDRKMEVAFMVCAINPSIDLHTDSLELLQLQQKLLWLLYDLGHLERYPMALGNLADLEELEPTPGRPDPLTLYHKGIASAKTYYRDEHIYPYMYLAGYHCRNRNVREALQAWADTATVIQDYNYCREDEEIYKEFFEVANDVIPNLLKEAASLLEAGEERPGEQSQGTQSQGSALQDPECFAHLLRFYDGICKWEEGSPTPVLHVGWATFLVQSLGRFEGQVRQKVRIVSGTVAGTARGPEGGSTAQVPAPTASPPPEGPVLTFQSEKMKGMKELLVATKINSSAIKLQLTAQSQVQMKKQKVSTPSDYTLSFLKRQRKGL
Procedure: FIG. 15, comprising FIG. 15A through FIG. 15G, depicts the results of example experiments. (FIG. 15A) Chemical structure of ISC-30 compound [N,N′-bis(4-aminophenyl)-N,N′-dimethylethylenediamine]. (CID: 193110, NCI: 129674, Chemical formula: C16H22N4 Molecular weight: 270.37) (FIG. 15B) His-SUMO-MeninΔ460-519 (Menin) was titrated into wells containing fluorescence polarization buffer and FITC-MLL peptide (1.5 nM) to allow fluorescence polarization monitoring and calculation of the binding affinity. (FIG. 15C) Wild-type (WT) or Mutant (Mut) competitor MLL peptides were titrated into wells containing fluorescence polarization butter, His-SUMO-MeninΔ460-519 (5 nM), and FITC-MLL peptide (1.5 nM) and the inhibition of fluorescence polarization was monitored and utilized to normalize the ISC30 inhibition. All measurements were blanked by subtracting the background signal taken from wells containing only buffer. mP=millipolarization. (FIG. 15D) Peptide displacement assay measuring ISC-30 inhibition of menin-MLL1 interaction by the decrease in fluorescence polarization (FP) signal of a FITC labeled MLL1 peptide upon ISC-30 induced dissociation from menin. […]
ISC30 was titrated into the wells of a 384-well plate containing fluorescence polarization buffer (40 mM HEPES pH 7.9, 150 mM NaCl, 0.01% Triton-X-100, 10 mM 2-mercaptoethanol), FITC-MLL peptide (1.5 nM), and His-SUMO-Menin-Δ460-519 (5 nM). […]

[7] = system: H3K9ac in MDA468 cells (p53 R273H); experiment: Western blot of H3K9ac in MDA468 cells with mutant p53 knockdown; format: cell-based, human; conditions: etoposide treatment
Excerpt: FIG. 4A depicts western blots depicting changes in histone modification (H3K4me3 and H3K9ac) in MDA468 cell line in response to control or p53 knockdown. FIG. 4B depicts the change in the abundance of H3K4me3 and H3K9ac following p53 GOF mutant knockdown, as well as the functional implication that the Rho and Ras pathways are most affected by p53 GOF mutant knockdown.
Experiments were next conducted to evaluate the functional outcomes of the p53 GOF regulation of histone modification. FIG. 4A (left) depicts a Western blot analysis of the MDA468 cell line in response to control or p53 knockdown. It is shown that H3K9Ac decreases in response to knockdown of mutant p53, but no other histone modifications appear to be affected.

[8] = system: mll1 in MCF7 cells (WT p53); experiment: mll1 mRNA (RT-qPCR) and MLL1 protein (western blot) upon Nutlin treatment in MCF7 cells; conditions: Nutlin vs DMSO
Excerpt: (FIG. 13B) RT-qPCR analysis of mRNA expression level changes upon DMSO or Nutlin treatment in MCF7 cells. (FIG. 13C) Western blot analysis of MLL1 protein levels upon DMSO or Nutlin treatment in MCF7 cells.

concentration at which the compound started to inhibit menin-MLL1 interaction [6]: approximately 2 μM
IC50 ([6]; normalized IC50, read-out: IC50, inhibition of menin-MLL1 interaction): 32 µM
SMILES: CN(CCN(C)c1ccc(N)cc1)c1ccc(N)cc1 [ISC-30, N,N′-bis(4-aminophenyl)-N,N′-dimethylethylenediamine]
menin-MLL1 interaction at endogenous levels (co-IP) [1]: blocked menin-MLL1 interaction at endogenous levels in a dose-dependent manner
growth of AT-1 cells [2]: reduced
expression of Hoxa cluster genes (HoxA5 and HoxA9 mRNA levels) [3]: decreased expression of Hoxa cluster genes
p53 null cell growth (MDAH041 cells (p53 null)): very little effect
menin-MLL1 interaction at endogenous levels (co-IP) [4]: blocked menin-MLL1 interaction at endogenous levels in a dose-dependent manner
GOF p53 cell growth [5]: dose-dependent inhibition

SMILES: COc1cc([C@@H]2c3cc4c(cc3[C@@H](O[C@@H]3O[C@@H]5CO[C@@H](C)O[C@H]5[C@H](O)[C@H]3O)[C@H]3COC(=O)[C@H]23)OCO4)cc(OC)c1O [etoposide]
loss of H3K9ac in response to knockdown of mutant p53 [7]: not affected

SMILES: COc1ccc(C2=NC(c3ccc(Cl)cc3)C(c3ccc(Cl)cc3)N2C(=O)N2CCNC(=O)C2)c(OC(C)C)c1 (stereo not shown) [Nutlin]
mll1 expression upon stabilization and elevation of WT p53 levels [8]: not upregulated

SMILES: CC1(C)CN=C(N2CCN(c3ncnc4sc(CC(F)(F)F)cc34)CC2)S1 [MI-2-2]
GOF p53 cell growth [5]: dose-dependent inhibition

SMILES: CN1CCN(c2ccc(-c3cccc(CN4CCOCC4)c3)cc2NC(=O)c2c[nH]c(=O)cc2C(F)(F)F)CC1 [OICR-9429]
p53 null cell growth (MDAH041 cells (p53 null)): little effect
GOF p53 cell growth [5]: dose-dependent inhibition
